Test results: patent US20140358576A1, “SYSTEM AND METHOD FOR SURVEILLANCE AND EVALUATION OF SAFETY RISKS ASSOCIATED WITH MEDICAL INTERVENTIONS” (Adverse Events, Inc., priority 2013, published 2014)
Where two headings read alike, the source gives them in different places.

Columns and labels:
[1] = patients, post-approval; cited from earlier work
[2] = for Condition Seriousness: Example 1 component score, up to 8.68 points; for Adverse Event Seriousness / Literature / Outcome / ROR / RxScore: human
[3] = human
[4] = RxScore calculation, Example 2 (FAERS components with event reporter Importance Weighting, no FDA warning/DEA schedule); details: for RxScore: Example 2, maximum of 100 total points, Importance Weighting applied; for Condition Seriousness / Adverse Event Seriousness / Outcome: Example 2 component score; for Condition Seriousness: up to 12 points; for Adverse Event Seriousness: up to 27 points; for Outcome: up to 35 points, comorbidity adjusted; for ROR: Example 2 disproportionality measure component score, up to 20 points; for Report Priority: Example 2 report type component score, up to 6 points

SMILES | Condition Seriousness [2] | Adverse Event Seriousness [2] | Literature [2] | Outcome [2] | ROR [2] | RxScore [2] | other results
COCc1c(C(C)C)nc(C(C)C)c(/C=C/[C@@H](O)C[C@@H](O)CC(=O)O)c1-c1ccc(F)cc1 [Baycol] |  |  |  |  |  |  | side effect that became evident after FDA approval [1]: a fatal muscle-wasting syndrome
CC(C)CC(N(C)C)C1(c2ccc(Cl)cc2)CCC1 (stereo not drawn) [Meridia, Sibutramine] |  |  |  |  |  |  | side effect that became evident after FDA approval [1]: severe cardiac complications
CS(=O)(=O)c1ccc(C2=C(c3ccccc3)C(=O)OC2)cc1 [Vioxx, rofecoxib] |  |  |  |  |  |  | side effect that became evident after FDA approval [1]: increased heart attack and stroke rates
CCN(CC)CCNC(=O)c1cc(Cl)c(N)cc1OC [metoclopramide] | 7.15 | 4.46 | 12.5 | 15.38 | 12.97 | 78.08 | 
COc1ccc2c3c1O[C@H]1C(=O)CC[C@@]4(O)[C@@H](C2)N(C)CC[C@]314 [oxycodone] |  | 14.17 | 18.8 | 14.81 | 5.51 | 100.00 | disproportionality (ROR) score [3]: 268
CN1CC[C@]23c4c5ccc(O)c4O[C@H]2C(=O)CC[C@@]3(O)[C@H]1C5 [oxymorphone] |  | 6.21 | 18.8 | 10.33 | 3.98 | 77.03 | 
O=P(O)(O)C(O)(Cc1cccnc1)P(=O)(O)O [risedronate sodium (Actonel), risedronate sodium] |  |  |  |  |  |  | RxScore [4]: 46.13; Condition Seriousness [4]: 2.40; Adverse Event Seriousness [4]: 8.19; Outcome [4]: 13.15; ROR [4]: 4.82; Report Priority [4]: 3.46
O=P(O)(O)C(O)(Cc1cccnc1)P(=O)(O)O [risedronate sodium (Atelvia), risedronate sodium] |  |  |  |  |  |  | RxScore [4]: 39.63; Condition Seriousness [4]: 2.40; Adverse Event Seriousness [4]: 4.60; Outcome [4]: 12.68; ROR [4]: 5.34; Report Priority [4]: 1.63
CN(CCOc1ccc(CC2SC(=O)NC2=O)cc1)c1ccccn1 (stereo not drawn) [rosiglitazone] | 3.77 |  | 12.5 | 12.18 | 5.53 | 79.48 | 
C=CC[C@@H]1/C=C(\C)C[C@H](C)C[C@H](OC)[C@H]2O[C@@](O)(C(=O)C(=O)N3CCCC[C@H]3C(=O)O[C@H](/C(C)=C/[C@@H]3CC[C@@H](O)[C@H](OC)C3)[C@H](C)[C@@H](O)CC1=O)[C@H](C)C[C@@H]2OC [tacrolimus] | 3.13 | 14.77 | 9.3 | 15.75 | 4.09 | 78.26 | 
CCCCC[C@H](O)CC[C@@H]1[C@H]2Cc3cccc(OCC(=O)O)c3C[C@H]2C[C@H]1O [treprostinil] | 4.00 |  | 0.0 |  |  |  | 
